Measured values published in ChEMBL document CHEMBL3098048, “TMEDA-derived biscationic amphiphiles: An economical preparation of potent antibacterial agents” (2014).

Experiments:
Format in all cases: functional
Pseudomonas aeruginosa = test: Antibacterial activity against wild-type Pseudomonas aeruginosa PAO1 assessed as growth inhibition after 72 hrs by broth microdilution method; conditions: PAO1, 72 h
Escherichia coli = test: Antibacterial activity against Escherichia coli MC4100 assessed as growth inhibition after 72 hrs by broth microdilution method; conditions: MC4100, 72 h
Enterococcus faecalis = test: Antibacterial activity against Enterococcus faecalis OG1RF assessed as growth inhibition after 72 hrs by broth microdilution method
Staphylococcus aureus = test: Antibacterial activity against Staphylococcus aureus SH1000 assessed as growth inhibition after 72 hrs by broth microdilution method; conditions: SH1000, 72 h

Row | MIC (Pseudomonas aeruginosa) [µM] | MIC (Escherichia coli) [µM] | MIC (Enterococcus faecalis) [µM] | MIC (Staphylococcus aureus) [µM] | SMILES
1 | 32 | 8 | 2 | 2 | CCCCCCCCCCCCCCCCCC[N+](C)(C)CC[N+](C)(C)CCCCCCCC
2 | 2 | 2 | 2 | 1 | CCCCCCCCCCCC[N+](C)(C)CC[N+](C)(C)CCCCCCCCCC
3 | 4 | 4 | 4 | 1 | CCCCCCCCCCCC[N+](C)(C)CC[N+](C)(C)CCCCCCCC
4 | 125 | 63 | 63 | 8 | CCCCCCCCCC[N+](C)(C)CC[N+](C)(C)CCCCCCCC
5 | 500 | 250 | 500 | 32 | CCCCCCCC[N+](C)(C)CC[N+](C)(C)CCCCCCCC
6 | 2 | 2 | 1 | 1 | CCCCCCCCCCCCC[N+](C)(C)CC[N+](C)(C)CCCCCCCCCC
7 | 125 | 63 | 4 | 4 | CCCCCCCCCCCCCCCCCCCC[N+](C)(C)CCN(C)C
8 | 63 | 63 | 4 | 2 | CCCCCCCCCCCCCCCCCC[N+](C)(C)CCN(C)C
9 | 16 | 16 | 16 | 1 | CCCCCCCCCCCCCCCC[N+](C)(C)CCN(C)C
10 | 125 | 16 | 8 | 2 | CCCCCCCCCCCCCC[N+](C)(C)CCN(C)C
11 | 250 | 63 | 63 | 32 | CCCCCCCCCCCC[N+](C)(C)CCN(C)C
12 | 250 | 250 | 250 | 63 | CCCCCCCCCC[N+](C)(C)CCN(C)C
13 | > 1000 | > 1000 | > 1000 | > 1000 | CCCCCCCC[N+](C)(C)CCN(C)C
14 | 63 | 63 | 32 | 16 | CCCCCCCCCCCCCCCCCCCC[N+](C)(C)CC[N+](C)(C)CCCCCCCCCCCCCCCC
15 | 63 | 16 | 16 | 8 | CCCCCCCCCCCCCCCCCCCC[N+](C)(C)CC[N+](C)(C)CCCCCCCCCCCCCC
16 | 63 | 32 | 4 | 8 | CCCCCCCCCCCCCCCCCCCC[N+](C)(C)CC[N+](C)(C)CCCCCCCCCCCC
17 | 16 | 16 | 16 | 4 | CCCCCCCCCCCCCCCCCCCC[N+](C)(C)CC[N+](C)(C)CCCCCCCCCC

Row | MIC (Pseudomonas aeruginosa) [µM] | MIC (Escherichia coli) [µM] | MIC (Enterococcus faecalis) [µM] | MIC (Staphylococcus aureus) [µM] | SMILES
18 | 32 | 16 | 4 | 4 | CCCCCCCCCCCCCCCCCCCC[N+](C)(C)CC[N+](C)(C)CCCCCCCC
19 | 500 | 250 | 63 | 32 | CCCCCCCCCCCCCCCCCC[N+](C)(C)CC[N+](C)(C)CCCCCCCCCCCCCCCCCC
20 | 63 | 32 | 32 | 16 | CCCCCCCCCCCCCCCCCC[N+](C)(C)CC[N+](C)(C)CCCCCCCCCCCCCCCC
21 | 63 | 16 | 16 | 8 | CCCCCCCCCCCCCCCCCC[N+](C)(C)CC[N+](C)(C)CCCCCCCCCCCCCC
22 | 32 | 16 | 4 | 4 | CCCCCCCCCCCCCCCCCC[N+](C)(C)CC[N+](C)(C)CCCCCCCCCCCC
23 | 32 | 16 | 2 | 4 | CCCCCCCCCCCCCCCCCC[N+](C)(C)CC[N+](C)(C)CCCCCCCCCC
24 | 63 | 32 | 8 | 8 | CCCCCCCCCCCCCCCC[N+](C)(C)CC[N+](C)(C)CCCCCCCCCCCCCCCC
25 | 63 | 16 | 2 | 8 | CCCCCCCCCCCCCCCC[N+](C)(C)CC[N+](C)(C)CCCCCCCCCCCCCC
26 | 32 | 8 | 4 | 8 | CCCCCCCCCCCCCCCC[N+](C)(C)CC[N+](C)(C)CCCCCCCCCCCC
27 | 32 | 8 | 4 | 4 | CCCCCCCCCCCCCCCC[N+](C)(C)CC[N+](C)(C)CCCCCCCCCC
28 | 4 | 2 | 2 | 2 | CCCCCCCCCCCCCCCC[N+](C)(C)CC[N+](C)(C)CCCCCCCC
29 | 32 | 4 | 2 | 4 | CCCCCCCCCCCCCC[N+](C)(C)CC[N+](C)(C)CCCCCCCCCCCCCC
30 | 8 | 2 | 2 | 1 | CCCCCCCCCCCCCC[N+](C)(C)CC[N+](C)(C)CCCCCCCCCCCC
31 | 4 | 2 | 1 | 4 | CCCCCCCCCCCCCC[N+](C)(C)CC[N+](C)(C)CCCCCCCCCC
32 | 4 | 2 | 2 | 1 | CCCCCCCCCCCCCC[N+](C)(C)CC[N+](C)(C)CCCCCCCC
33 | 4 | 2 | 1 | 1 | CCCCCCCCCCCC[N+](C)(C)CC[N+](C)(C)CCCCCCCCCCCC
34 | 8 | 16 | 8 | 2 | CCCCCCCCCC[N+](C)(C)CC[N+](C)(C)CCCCCCCCCC

Row | SMILES | MIC (Pseudomonas aeruginosa) [µM] | MIC (Escherichia coli) [µM] | MIC (Enterococcus faecalis) [µM] | MIC (Staphylococcus aureus) [µM]
35 | CCCCCCCCCCC[N+](C)(C)CC[N+](C)(C)CCCCCCCCCC | 4 | 4 | 4 | 1
